Drawing on US20240024289A1, “TREATMENT OF BIPOLAR DISORDERS AND PSYCHOSIS USING DEXMEDETOMIDINE HYDROCHLORIDE” (BioXcel Therapeutics, Inc., priority 2020, published 2024), this text covers SmartCube class signature for two compounds.

Like-named read-outs stand apart in the source and are kept apart here.

Experiment [1] relates to Male C57/B16 mice.
Excerpt: This system uses features derived from mouse behavioral data to classify compounds for their ability to treat neuro-psychiatric symptoms by comparing the features to a proprietary reference database of behavioral feature sets that are linked to classes of marketed drugs known to treat neuro-psychiatric symptoms. Thus the system can be used as a model to identify the psychiatric effect of a compound by comparing the effects of the compounds against drugs with known validated effects.
Once all features are extracted from the raw data through an automated pipeline, proprietary bioinformatics algorithms are used to decorrelate groups of features and find the combination of values that best separate different groups of interest.
SmartCube reference data used herein include anti-psychotics tested at several dose ranges. […] Anti-psychotics, when administered at higher doses, can engage additional receptor systems and thus affect mouse behavior differently.
Animals: Male C57/B16 mice (N=12 per group) from Taconic Laboratories were used. Upon receipt, mice were group-housed in OPTI mouse ventilated cages with 4 mice per cage. Mice were acclimated to the colony room for at least one week prior to test and subsequently tested at approximately 8-9 weeks of age. All animals were examined, handled, and weighed prior to initiation of the study to assure adequate health and suitability and to minimize non-specific stress associated with manipulation.
Treatment: 7 groups (N=12 per group)
All compounds tested were formulated in NP3 (vehicle solution): 5% Pharmasolve; 30% P3 (1:1:1 PEG200:PEG400:propylene glycol); 65% saline; pH is 5.1-6.
All SmartCube runs were conducted with NP3 as vehicle and under identical settings. […] Test compounds were injected intraperitoneally (IP) for 15 min before animals were placed in SmartCube for assessment.
The results for the class analyses are presented as standardized bar charts with percentages that sum to 100 for each dose. The percentage indicates the probability the classifier can differentiate between the vehicle group and test group. […]
The subject of experiment [2] is Male C57/B16 mice. To be noted: reference data from Psychogenics, cited from earlier work.

Consider `Cc1cccc([C@H](C)c2cnc[nH]2)c1C` [Dexmedetomidine, (+) 4-(S)-[1-(2,3-dimethylphenyl)ethyl]-1H-imidazole], for which the SmartCube class signature result in the experiment on Male C57/B16 mice [1] (IP, 1, 2 and 5 mcg/kg) is on record as “cannot distinguish the mouse behaviour from behaviour of mice on vehicle”; in the experiment on Male C57/B16 mice [1] (IP, 10, 20 and 50 mcg/kg (0.01, 0.02, 0.05 mg/kg), 15 min before test), “antipsychotic signature”; in the experiment with Male C57/B16 mice [1] (IP, higher doses), “high dose of anti-psychotic”.
For `N=C(N)NC(=O)Cc1c(Cl)cccc1Cl` [Guanfacine], the SmartCube class signature entry in the experiment on Male C57/B16 mice [2] (higher doses) is “high dose anti-psychotic”; in the experiment on Male C57/B16 mice [2] (therapeutically effective doses), “unable to assign signature”.
